According to publication PMC8921065, “Combination of terbium-161 with somatostatin receptor antagonists—a potential paradigm shift for the treatment of neuroendocrine neoplasms” (European Journal of Nuclear Medicine and Molecular Imaging, 2021):

Test: in vivo
Details: mouse, iv, 0.2 nmol/mouse, total radioactivity

Measured: tissue uptake at 24 h

C[C@@H](O)[C@@H]1NC(=O)[C@H](CCCCN)NC(=O)[C@@H](Cc2ccc(NC(N)=O)cc2)NC(=O)[C@H](Cc2ccc(O)cc2)NC(=O)[C@H](NC(=O)[C@H](Cc2ccc(Cl)cc2)NC(=O)CN2CCN(CC(=O)O)CCN(CC(=O)O)CCN(CC(=O)O)CC2)CSSC[C@@H](C(=O)N[C@H](Cc2ccc(O)cc2)C(N)=O)NC1=O [metal not drawn]
≤ 0.1 %ID/g: blood | heart | muscle
